Assay results as given in US6900008B2, “Methods and formulations for minimizing spasticity in blood vessel grafts” (Emory University, priority 2001, dated 2005).
Marks after values point to notes of the source that are not given here.

Assays:
[1] = system: canine radial artery segments; assay: Norepinephrine-induced contraction of pretreated canine radial artery segments in organ chambers; assay type: cell-based; settings: for Maximal constriction response to norepinephrine, % of KCl response: KCl 30 mmol/L
Protocol: (§1) Canine radial arteries were harvested without pedicles, and incubated in control buffer or solutions of papavarine (10^−6M), 2, 3-butadione monoxime (BDM, 10^−6M) (a putative protein phosphatase) or phenoxybenzamine (10^−6M) for a period of 30 minutes. The arteries were then washed with buffer and stored in a drug-free culture medium for a set time period (2 hours, 24 hours or 48 hours per example). After storage, vasopressors norepinephrine or phenylephrine were added at incremental concentrations ranging from 0.7 to 3.5 μmol/L (norepinephrine) or 0.300 to 1.5 μmol/L (phenylephrine) to all arterial samples to attempt to induce spasticity or vasoconstriction. The degree of vasoconstriction was then quantified in organ chambers. The responses of the arterial samples to norepinephrine or phenylephrine were compared with spasticity or constriction with receptor-independent potassium chloride (KCl) at 30 mmol/L.
(§2) The maximum responses of untreated and treated radial artery segments of KCl, phenylephrine and norepinephrine (in grams of tension) are summarized in Table 1. The constriction (contraction) responses to phenylephrine and norepinephrine given below are represented as a percentage of the responses to KCl, i.e. 100×(grams tension norepinephrine/grams tension KCl).

[2] = system: canine radial artery segments; assay: Phenylephrine-induced contraction of pretreated canine radial artery segments in organ chambers; assay type: cell-based; settings: for Constriction response to the maximum concentration of phenylephrine, % of KCl response: KCl 30 mmol/L
Protocol: as §1, §2

[3] = system: human radial artery segments; assay: Norepinephrine-induced vasoconstriction of human radial artery rings in organ chambers; assay type: cell-based
Protocol: (§3) Radial artery (RA) segments were obtained from patients having elective coronary artery bypass grafting with or without cardiopulmonary bypass at the Crawford Long Hospital of Emory University. A modified Allen's test was performed to assess the adequacy of collateral circulation to the hand preoperatively. The RA was harvested with its pedicle containing the venae comitantes, perivascular fat and areolar tissue (no fasciotomy) using a “no-touch” technique. Branches of the RA were ligated with vascular clips. A subset of the radial artery grafts had the musculofascial tissue incised (with fasciotomy) to expose the aerolar tissue adjacent to the graft. […]
(§4) The rings were then incubated with increasing concentrations of PE (0.5 to 15 μM) or NE (0.5 to 15 μM). After the highest concentration of alpha adrenergic agent was achieved, 30 mM KCl was added to the bath to quantify the maximal nonreceptor-mediated constriction. […]
(§5) The changes in isometric force were quantified using an analog-to-digital converter sampling at 2 Hz. The responses were analyzed using a Windows-based videographics program ([…], Wake Forest University, Winston-Salem, N.C.). The force of contraction elicited by the exposure to increasing concentrations of PE and NE was expressed as a percentage of the maximal contraction generated by KCl in each ring. […]

[4] = system: radial artery segments (endothelium); assay: Endothelial relaxation response to acetylcholine of stored radial artery segments; assay type: cell-based, canine
Excerpt: The endothelium contributes to the overall vascular tone by tonic release of autacoids such as nitric oxide among other vasoactive substances. In addition, any attenuation of function related to autacoid release by phenoxybenzamine or its diluents would be undesirable.

[5] = system: human radial artery segments; assay: Phenylephrine-induced vasoconstriction of human radial artery rings in organ chambers; assay type: cell-based; settings: 15 μM PE
Protocol: Radial artery (RA) segments were obtained from patients having elective coronary artery bypass grafting with or without cardiopulmonary bypass at the Crawford Long Hospital of Emory University. A modified Allen's test was performed to assess the adequacy of collateral circulation to the hand preoperatively. The RA was harvested with its pedicle containing the venae comitantes, perivascular fat and areolar tissue (no fasciotomy) using a “no-touch” technique. Branches of the RA were ligated with vascular clips. A subset of the radial artery grafts had the musculofascial tissue incised (with fasciotomy) to expose the aerolar tissue adjacent to the graft. The RA was then placed in a solution containing 20 mL heparinized blood, 1.6 mL 1% lidocaine and 0.4 mL papaverine (30 mg/mL) for approximately 30 minutes. […] Prior to its placement in the aortocoronary position, a small segment of the RA was obtained and immediately placed in Krebs-Henseleit (K-H) buffer (118 mmol/L NaCl, 4.7 mmol/L KCl, 1.2 mmol/L KH2PO4, 1.2 mmol/L MgSO4, 2.5 mmol/L CaCl2, 12.5 mmol/L NaHCO3, and 10 mmol/L glucose) at 4° C., pH 7.4 and transported to the Cardiothoracic Research Laboratory.
The harvested radial artery segment with or without fasciotomy was placed into K-H buffer pH 7.4 with either 10, 100 or 1000 μM PBZ or vehicle. The radial artery was flushed intraluminally twice with this solution, once at the beginning and once at the end of a 30 minute incubation period, which approximates the time between RA harvest and placement in the aortocoronary position. In addition, Control RA segments were obtained prior to intraoperative pretreatment of the conduit with the papaverine/lidocaine solution and received no other treatment. The segments were prepared for placement in organ chambers by carefully skeletonizing them in cold K-H buffer and cutting them into rings three to five mm in length. The rings were then mounted on stainless steel hooks, connected to FT-03 force displacement transducers, and placed into Radnoti organ chambers (Radnoti Glass, Monrovia, Calif. containing 7 mL of oxygenated (95% O2, 5% CO2) K-H buffer at 37° C. and pH 7.4. Indomethacin (10 μmol/L) was added to the buffer to block responses to endogenous prostanoids. The rings were stabilized for one hour with frequent buffer changes and set to a predetermined tension that allowed 75% of maximal contraction to 30 mM potassium chloride (KCl).
The rings were then incubated with increasing concentrations of PE (0.5 to 15 μM) or NE (0.5 to 15 μM). After the highest concentration of alpha adrenergic agent was achieved, 30 mM KCl was added to the bath to quantify the maximal nonreceptor-mediated constriction. In randomly selected vessels, the integrity of the radial artery endothelium was also tested for its receptor-dependent relaxation response to incremental concentrations of acetylcholine (ACh), a stimulator of nitric oxide synthase. The rings were precontracted with the thromboxane A2 mimetic U46619 (1.4 nmol/L), and then exposed to increasing concentrations of Ach (1 nmol/L to 11.7 μmol/L) in the presence of 10 μM indomethacin.
The changes in isometric force were quantified using an analog-to-digital converter sampling at 2 Hz. The responses were analyzed using a Windows-based videographics program ([…], Wake Forest University, Winston-Salem, N.C.). The force of contraction elicited by the exposure to increasing concentrations of PE and NE was expressed as a percentage of the maximal contraction generated by KCl in each ring. The degree of relaxation after exposure to ACh was expressed as the percent tension reduction from the maximal force of contraction obtained from U46619.
If a significant difference between groups was assigned by ANOVA, a post-hoc Student-Newman-Keuls test was applied to locate the source of differences. A p value of <0.05 was considered to be statistically significant. All data are reported as means±the standard error of the mean.

[6] = system: human radial artery endothelium; assay: Endothelial function: relaxation to acetylcholine of U46619-precontracted human radial artery rings; assay type: cell-based; settings: 12 μM ACh; without fasciotomy; PBZ at 1000 μM where used
Protocol: as §3, §4, §5

[7] = 2 Hours drug-free storage after 30 min incubation with 10^−6M drug
[8] = 24 Hours drug-free storage after 30 min incubation with 10^−6M drug
[9] = 48 Hours drug-free storage after 30 min incubation with 10^−6M drug
[10] = 2 hours after 30 min pretreatment with 10^−6M drug
[11] = 48 hours after 30 min pretreatment with 10^−6M drug
[12] = 48 hours of storage, did not reach significance
[13] = after washing (2 hours) or 24 or 48 hours after the 30-minute pretreatment, 10^−6M
[14] = 24 hours after 30 min pretreatment with 10^−6M drug

Row | Compound | Contraction response to norepinephrine from resting force (maximum response) [1, 7] | Contraction response to norepinephrine from resting force (maximum response) [1, 8] | Contraction response to norepinephrine from resting force (maximum response) [1, 9] | Maximal constriction response to norepinephrine, % of KCl response [1, 10] | Contraction response to phenylephrine from resting force (maximum response) [2, 7] | Contraction response to phenylephrine from resting force (maximum response) [2, 8] | Contraction response to phenylephrine from resting force (maximum response) [2, 9] | Constriction response to the maximum concentration of phenylephrine, % of KCl response [2, 11] | other results
1 | CC(=O)C(C)=NO [BDM, 2,3-butadione monoxime] | 5.69 ± 0.29 grams of tension | 4.22 ± 0.75 grams of tension | 7.01 ± 0.85 grams of tension | approximately 75% | 8.35 ± 0.79 grams of tension | 9.43 ± 0.64 grams of tension | 7.01 ± 0.80 grams of tension | approximately 39% | Constriction responses to norepinephrine compared with control vessels (in words) ([1]; after 24 hours and 48 hours of drug-free storage): similar; Constrictor responses to phenylephrine compared with control segments (in words) ([2]; at 2 hours and 24 hours): very similar
2 | COc1ccc(Cc2nccc3cc(OC)c(OC)cc23)cc1OC [papaverine] | 7.65 ± 0.72 grams of tension | 10.37 ± 0.26 grams of tension | 12.55 ± 1.22 grams of tension | – | 14.29 ± 0.76 grams of tension | 12.33 ± 0.76 grams of tension | 10.46 ± 0.52 grams of tension | – | Maximal constrictor response to norepinephrine compared with control vessels (in words) [1, 12]: paradoxical trend toward increased maximal constrictor response; Effect on norepinephrine-induced contraction (in words) [1, 13]: no inhibitory effect; Maximal constrictor response to phenylephrine compared with control vessels (in words) [2, 12]: paradoxical trend toward increased maximal constrictor response; Effect on phenylephrine-induced contraction (in words) [2, 13]: no inhibitory effect
3 | CC(COc1ccccc1)N(CCCl)Cc1ccccc1 (centres unmarked) [phenoxybenzamine] | 0.80 ± 0.05^b grams of tension | −0.58 ± 0.05^b grams of tension | −1.62 ± 0.36^b grams of tension | −7%±1% | 2.03 ± 0.13 ^b grams of tension | 0.20 ± 0.01^b grams of tension | −1.08 ± 0.19^b grams of tension | −12%±4% | Effect on constriction to NE (in words) ([3]; PBZ at 10 μM): inhibited constriction to concentrations of NE greater than 7 μM; Effect on constrictor responses to NE (in words) ([3]; PBZ at 1000 μM, across all concentrations of NE): completely inhibited; Maximal constriction response to norepinephrine, % of KCl response [1, 14]: −5%±5%; Maximal constriction response to norepinephrine, % of KCl response [1, 11]: −20%±5%; Maximum relaxation response to the highest concentration of acetylcholine ([4]; after 24 hours of storage): 57%±6%; Maximum relaxation response to the highest concentration of acetylcholine ([4]; after 48 hours of storage): 30%±5%; Maximum relaxation response to the highest concentration of acetylcholine ([4]; at 2 hours of storage): 61%±5%; Attenuation of vasoconstriction response to PE, % of control ([5]; 10 μM PBZ): 63%; Contraction at the highest concentration of PE, % of the KCl response ([5]; 10 μM PBZ 30 min in addition to papaverine/lidocaine): 16.5±4.3%; Attenuation of vasoconstriction response to PE, % of control ([5]; 100 μM PBZ): 80%; Contraction at the highest concentration of PE, % of the KCl response ([5]; 100 μM PBZ 30 min in addition to papaverine/lidocaine): 8.7±5.1%; Attenuation of vasoconstriction response to PE, % of control ([5]; 1000 μM PBZ): 116%; Contraction at the highest concentration of PE, % of the KCl response ([5]; 1000 μM PBZ 30 min in addition to papaverine/lidocaine): −7.2±4.4%; Relaxation response to ACh (percent tension reduction from U46619 contraction) [6]: 81.0±11.8%; Constriction response to the maximum concentration of phenylephrine, % of KCl response [2, 10]: 19%±8%; Constriction response to the maximum concentration of phenylephrine, % of KCl response [2, 14]: 1%±4%
